Laboratory results taken from paper PMC12455397 (Angewandte Chemie (International Ed. in English), 2025).

Legend:
human Keap1 Kelch = human Keap1 Kelch (Homo sapiens, UniProt Q14145); assay: Fluorescence polarization (FP) competition assay with Cy5-Nrf2 peptide probe; conditions: for Ki: ≥3 individual measurements; for ligand efficiency (LE): from FP Ki; for fold improvement in binding affinity (FP) over parent analogue: 7 vs 4, 12 vs 7, 13 vs 12
[1] = system: Nrf2-regulated genes (AKR1B10, NQO1, TRXR1, HO-1) in HaCaT human keratinocytes; assay: HaCaT cell assay, Western Blotting of Nrf2-regulated proteins; type: cell-based; conditions: HaCaT, 10 µM, 24 h
[2] = FP (Ki/nM), Table S2, mean ± SEM, NA: not active (measured up to 4 mM)
[3] = Ki (FP), mean, text and figures

human Keap1 Kelch, sequence (Q14145 321-609): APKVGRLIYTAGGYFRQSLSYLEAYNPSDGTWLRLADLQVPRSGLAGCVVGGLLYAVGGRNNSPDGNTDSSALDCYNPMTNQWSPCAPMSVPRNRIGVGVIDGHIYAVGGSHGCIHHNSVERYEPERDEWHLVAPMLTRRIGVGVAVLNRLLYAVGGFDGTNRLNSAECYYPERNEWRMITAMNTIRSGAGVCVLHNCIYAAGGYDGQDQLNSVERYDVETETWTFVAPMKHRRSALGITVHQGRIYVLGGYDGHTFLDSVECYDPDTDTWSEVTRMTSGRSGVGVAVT

Row | Ki (human Keap1 Kelch; [2]) [nM] | Ki (human Keap1 Kelch; [3]) [nM] | Compound | also measured
1 | 284 ± 31 | 280 | COc1cccc(C(CC(=O)O)c2ccc3ccc(OCC(=O)NC4CCCCCC4)cc3c2)c1 (stereo not drawn) [Compound 14] | –
2 | 294 ± 25 | 290 | O=C(O)CC(c1ccc(Cl)cc1)c1ccc2ccc(OCC(=O)NC3CCCCCC3)cc2c1 (stereo not drawn) [Compound 15] | –
3 | 268000 ± 29000 | – | O=C(O)CCc1ccc2ccc(OCC(=O)NN3CCOCC3)cc2c1 [Compound 6] | Ki (human Keap1 Kelch; Ki (FP), mean): 270000 nM
4 | 15.6 ± 2.6 | 16 | Cc1cc2occc2cc1C(CC(=O)O)c1ccc2ccc(OCC(=O)NC3CCCCCC3)cc2c1 (stereo not drawn) [Compound 26] | –
5 | 21.1 ± 1.5 | 21 | O=C(O)CC(c1ccc2ccc(OCC(=O)NC3C=CCCC3)cc2c1)c1ccc2occc2c1 (stereo not drawn) [Compound 41] | –
6 | 19.2 ± 2.4 | 19 | Cc1cc2c(cc1C(CC(=O)O)c1ccc3ccc(OCC(=O)NC4C=CCCC4)cc3c1)OCCO2 (stereo not drawn) [Compound 48] | protein levels of Nrf2-regulated genes by WB [1]: strong bands in WB for all tested proteins
7 | 16.1 ± 3.8 | 16 | Cc1cc2c(cc1C(CC(=O)O)c1ccc3ccc(OCC(=O)NC4C=CCCC4)cc3c1)OC(F)(F)O2 (stereo not drawn) [Compound 47] | –
8 | 15500 ± 1300 | – | O=C(O)CCc1ccc2ccc(OCC(=O)NC3CCCCC3)cc2c1 [Compound 4] | Ki (human Keap1 Kelch; Ki (FP), mean): 16000 nM; ligand efficiency (LE) (human Keap1 Kelch): 0.25
9 | 24.4 ± 0.4 | 24 | Cc1cc2occc2cc1C(CC(=O)O)c1ccc2ccc(OCC(=O)NC3CCCCC3)cc2c1 (stereo not drawn) [Compound 36] | –
10 | 53.9 ± 6.1 | 54 | O=C(O)CC(c1cccc(Cl)c1)c1ccc2ccc(OCC(=O)NC3CCCCCC3)cc2c1 (stereo not drawn) [Compound 16] | –
11 | 51.4 ± 4.8 | 51 | O=C(O)CC(c1ccc2c(c1)OC(F)(F)O2)c1ccc2ccc(OCC(=O)NC3CCCCC3)cc2c1 (stereo not drawn) [Compound 32] | –
12 | 82.1 ± 7.9 | 82 | O=C(O)CC(c1ccc2c(c1)CCO2)c1ccc2ccc(OCC(=O)NC3CCCCC3)cc2c1 (stereo not drawn) [Compound 30] | –
13 | 32.4 ± 1.3 | 32 | Cc1cc2c(cc1C(CC(=O)O)c1ccc3ccc(OCC(=O)NC4CCCCC4)cc3c1)CCO2 (stereo not drawn) [Compound 35] | –
14 | 24.5 ± 1.7 | 25 | O=C(O)CC(c1ccc2c(c1)OCO2)c1ccc2ccc(OCC(=O)NC3C=CCCC3)cc2c1 (stereo not drawn) [Compound 39] | –
15 | 18.3 ± 2.4 | 18 | Cc1cc2c(cc1C(CC(=O)O)c1ccc3ccc(OCC(=O)NC4C=CCCC4)cc3c1)CCO2 (stereo not drawn) [Compound 45] | –
16 | – | 3.9 | Cc1cc2c(cc1C(CC(=O)O)c1ccc3ccc(OCC(=O)NC4C=CCCC4)cc3c1)OCO2 (stereo not drawn) [Compound 44] | protein levels of Nrf2-regulated genes by WB [1]: strong bands in WB for all tested proteins
17 | 1060 ± 99 | – | O=C(O)CC(c1ccccc1)c1ccc2ccc(OCC(=O)NC3CCCCCC3)cc2c1 (stereo not drawn) [Compound 12] | fold improvement in binding affinity (FP) over parent analogue (human Keap1 Kelch): 6 fold; Ki (human Keap1 Kelch; Ki (FP), mean): 1100 nM; ligand efficiency (LE) (human Keap1 Kelch): 0.25
18 | 33.8 ± 4.7 | 34 | O=C(O)CC(c1ccc2c(c1)OC(F)(F)O2)c1ccc2ccc(OCC(=O)NC3CCCCCC3)cc2c1 (stereo not drawn) [Compound 22] | –
19 | 17.8 ± 3.4 | 18 | Cc1cc2occc2cc1C(CC(=O)O)c1ccc2ccc(OCC(=O)NC3C=CCCC3)cc2c1 (stereo not drawn) [Compound 46] | –
20 | 18.1 ± 5.9 | 18 | Cc1cc2c(cc1C(CC(=O)O)c1ccc3ccc(OCC(=O)NC4CCCCC4)cc3c1)OCO2 (stereo not drawn) [Compound 34] | –
21 | 23.6 ± 2.2 | 24 | COc1ccc(C(CC(=O)O)c2ccc3ccc(OCC(=O)NC4CCCCCC4)cc3c2)c(C)c1 (stereo not drawn) [Compound 17] | –
22 | 29.9 ± 2.2 | 30 | O=C(O)CC(c1ccc2c(c1)OC(F)(F)O2)c1ccc2ccc(OCC(=O)NC3C=CCCC3)cc2c1 (stereo not drawn) [Compound 42] | –
23 | 23.2 ± 1.3 | 23 | O=C(O)CC(c1ccc2c(c1)OCO2)c1ccc2ccc(OCC(=O)NC3CCCCCC3)cc2c1 (stereo not drawn) [Compound 19] | ligand efficiency (LE) (human Keap1 Kelch): 0.29

Row | Ki (human Keap1 Kelch; [2]) [nM] | Ki (human Keap1 Kelch; [3]) [nM] | Compound | also measured
24 | 20.3 ± 2.1 | 20 | O=C(O)CC(c1ccc2c(c1)OCCO2)c1ccc2ccc(OCC(=O)NC3C=CCCC3)cc2c1 (stereo not drawn) [Compound 43] | –
25 | 196000 ± 24000 | – | Cc1cc(C)c(C)c(NC(=O)COc2ccc3ccc(CCC(=O)O)cc3c2)c1C [Compound 11] | Ki (human Keap1 Kelch; Ki (FP), mean): 200000 nM
26 | 35.5 ± 3.4 | 36 | O=C(O)CC(c1ccc2c(c1)CCO2)c1ccc2ccc(OCC(=O)NC3CCCCCC3)cc2c1 (stereo not drawn) [Compound 20] | –
27 | 38300 ± 2900 | – | O=C(O)CCc1ccc2ccc(OCC(=O)NC3CCOCC3)cc2c1 [Compound 5] | Ki (human Keap1 Kelch; Ki (FP), mean): 38000 nM
28 | 14.1 ± 2.4 | 14 | Cc1cc2c(cc1C(CC(=O)O)c1ccc3ccc(OCC(=O)NC4CCCCCC4)cc3c1)OC(F)(F)O2 (stereo not drawn) [Compound 27] | –
29 | 29.3 ± 1.7 | 29 | O=C(O)CC(c1ccc2c(c1)OCCO2)c1ccc2ccc(OCC(=O)NC3CCCCC3)cc2c1 (stereo not drawn) [Compound 33] | –
30 | 69600 ± 9400 | – | COc1ccc(NC(=O)COc2ccc3ccc(CCC(=O)O)cc3c2)cc1 [Compound 9] | Ki (human Keap1 Kelch; Ki (FP), mean): 70000 nM
31 | 162000 ± 22000 | – | O=C(COc1cccc(N2CCC(C(=O)O)CC2)c1)NC1CCCCC1 [Compound 3] | Ki (human Keap1 Kelch; Ki (FP), mean): 160000 nM; ligand efficiency (LE) (human Keap1 Kelch): 0.20
32 | 59.5 ± 8.4 | 60 | Cc1c(Cl)cccc1C(CC(=O)O)c1ccc2ccc(OCC(=O)NC3CCCCCC3)cc2c1 (stereo not drawn) [Compound 18] | –
33 | 18.8 ± 1.7 | 19 | Cc1cc2c(cc1C(CC(=O)O)c1ccc3ccc(OCC(=O)NC4CCCCCC4)cc3c1)CCO2 (stereo not drawn) [Compound 25] | protein levels of Nrf2-regulated genes by WB [1]: strong bands in WB for all tested proteins
34 | 31.6 ± 2.6 | 32 | COc1ccc(C(CC(=O)O)c2ccc3ccc(OCC(=O)NC4CCCCCC4)cc3c2)cc1 (stereo not drawn) [Compound 13] | fold improvement in binding affinity (FP) over parent analogue (human Keap1 Kelch): 34 fold; ligand efficiency (LE) (human Keap1 Kelch): 0.29
35 | 26.7 ± 4.2 | 27 | O=C(O)CC(c1ccc2c(c1)CCO2)c1ccc2ccc(OCC(=O)NC3C=CCCC3)cc2c1 (stereo not drawn) [Compound 40] | protein levels of Nrf2-regulated genes by WB [1]: strong bands in WB for all tested proteins
36 | 68.2 ± 12 | 68 | O=C(O)CC(c1ccc2ccc(OCC(=O)NC3CCCCC3)cc2c1)c1ccc2occc2c1 (stereo not drawn) [Compound 31] | –
37 | 6560 ± 580 | – | O=C(O)CCc1ccc2ccc(OCC(=O)NC3CCCCCC3)cc2c1 [Compound 7] | fold improvement in binding affinity (FP) over parent analogue (human Keap1 Kelch): 2 fold; Ki (human Keap1 Kelch; Ki (FP), mean): 6600 nM; ligand efficiency (LE) (human Keap1 Kelch): 0.26
38 | 57.1 ± 4.8 | 57 | O=C(O)CC(c1ccc2c(c1)OCO2)c1ccc2ccc(OCC(=O)NC3CCCCC3)cc2c1 (stereo not drawn) [Compound 29] | –
39 | 10200 ± 2400 | – | O=C(O)CCc1ccc2ccc(OCC(=O)Nc3ccccc3)cc2c1 [Compound 8] | Ki (human Keap1 Kelch; Ki (FP), mean): 10000 nM
40 | 38.3 ± 1.6 | 38 | O=C(O)CC(c1ccc2ccc(OCC(=O)NC3CCCCCC3)cc2c1)c1ccc2occc2c1 (stereo not drawn) [Compound 21] | –
41 | – | 7.1 | Cc1cc2c(cc1C(CC(=O)O)c1ccc3ccc(OCC(=O)NC4CCCCC4)cc3c1)OC(F)(F)O2 (stereo not drawn) [Compound 37] | –
42 | – | 15 | O=C(O)CC(c1ccc2c(c1)OCCO2)c1ccc2ccc(OCC(=O)NC3CCCCCC3)cc2c1 (stereo not drawn) [Compound 23] | –
43 | 14.9 ± 0.8 | 15 | Cc1cc2c(cc1C(CC(=O)O)c1ccc3ccc(OCC(=O)NC4CCCCC4)cc3c1)OCCO2 (stereo not drawn) [Compound 38] | –
44 | 21300 ± 710 | – | Cc1cc(C)c(NC(=O)COc2ccc3ccc(CCC(=O)O)cc3c2)c(C)c1 [Compound 10] | Ki (human Keap1 Kelch; Ki (FP), mean): 21000 nM
45 | – | – | O=C(O)CCc1cccc(OCC(=O)NC2CCCCC2)c1 [Compound 2] | activity in FP competition assay (human Keap1 Kelch): inactive
